Results taken from PubChem BioAssay (NCI).
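Growth conditions: 96-well plates. Treatment: test compound, 48 hours, 5 concentrations. Analysis: linear interpolation between bracketing concentrations; unreached endpoints set to highest concentration. TGI: total growth inhibition.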

Tests used:
Assay in all cases: NCI-60 cell line screen, 48 h
[1] = tested on: NCI/ADR-RES ovarian
[2] = tested on: HCT-116 colon
[3] = tested on: HOP-92 NSCLC
[4] = tested on: SR leukemia
[5] = tested on: SW-620 colon
[6] = tested on: SNB-75 CNS
[7] = tested on: HOP-62 NSCLC
[8] = tested on: CCRF-CEM leukemia
[9] = tested on: SF-268 CNS
[10] = tested on: U251 CNS
[11] = tested on: RPMI-8226 leukemia
[12] = tested on: SK-OV-3 ovarian
[13] = tested on: UO-31 renal
[14] = tested on: COLO 205 colon
[15] = tested on: UACC-257 melanoma
[16] = tested on: NCI-H522 lung
[17] = tested on: UACC-62 melanoma
[18] = tested on: EKVX NSCLC
[19] = tested on: T-47D breast
[20] = tested on: SK-MEL-2 melanoma

Compound	TGI [1] [µM]	TGI [2] [µM]	TGI [3] [µM]	TGI [4] [µM]	TGI [5] [µM]	TGI [6] [µM]	TGI [7] [µM]	TGI [8] [µM]	TGI [9] [µM]	TGI [10] [µM]	TGI [11] [µM]	TGI [12] [µM]	TGI [13] [µM]	TGI [14] [µM]	TGI [15] [µM]	TGI [16] [µM]	TGI [17] [µM]	TGI [18] [µM]	TGI [19] [µM]	TGI [20] [µM]
COC1CC(OC2C(C)OC(OC3C(C)OC(OC4C(O)CC(O[C@H]5CC[C@@]6(C)C(=CC[C@]7(O)[C@@H]6C[C@@H](OC(=O)/C=C/c6ccccc6)[C@@]6(C)[C@]7(O)CC[C@@]6(O)C(C)=O)C5)OC4C)CC3OC)CC2OC)OC(C)C1O (stereo not given in full)	> 6.25	> 6.25	> 6.25	> 6.25	> 6.25	> 6.25	> 6.25	> 6.25	> 6.25	> 6.25	> 6.25	> 6.25	> 6.25	> 6.25	> 6.25	> 6.25	> 6.25	> 6.25	> 6.25	> 6.25
Oc1cc(Br)cc2cccnc12	8.26	16.8	38	5.92	16.9	> 91.5	81.9	4.61	> 42.2	> 58.4	5.68	79.9	35.9	34.8	6.93	7.57	7.81	16.2	25.4	> 100
CC(C)CC1C(=O)NCCC(NC(=O)C(N)Cc2ccc(O)cc2)C(=O)NC(Cc2ccccc2)C(=O)NC(Cc2ccccc2)NC1=O (stereo not given)	> 100	> 100	> 100	> 100	> 100	> 100	> 100	> 100	> 100	> 100	> 100	> 100	> 100	> 100	> 100	> 100	> 100	> 100	> 100	> 100
COC(=O)c1ccccc1CC1Cc2ccc3c(c2C1)CCC3 (stereo not given)	45.7	> 100	52.5	27.1	> 100	> 100	> 100	36.9	> 100	85.1	47.7	> 100	> 100	34.5	28.6	46.9	> 100	48.8	> 100	30.7
CCCCCCCCCc1cc(-c2ccc(C=O)s2)sc1-c1ccc(C=O)s1	> 78.6	49	75.8	26.9	> 100	> 91.1	74.8	8.51	> 100	29	51.2	67.2	63.3	> 31.6	30.8	45.6	23.7	> 100	> 85.6	64.4
C=CC(c1ccccc1)[C@@]1(OC(C)=O)C(=O)C(=O)OC1C1COC(C)(C)O1 (stereo not given in full)	51.7	24.7	15.9	10.2	35.8	36.6	34.2	> 19.6	71.4	28.7	56.4	32.3	23.7	26.5	23.9	10.8	29	35.3	41.1	33.4
c1ccc(N=C(Nc2ccccc2)N2CCCCC2)cc1	> 100	> 100	> 100	> 100	> 100	> 100	> 100	> 100	> 100	> 100	> 100	> 100	> 100	> 100	68.9	> 100	> 100	> 100	> 100	> 100
Cc1nc(Nc2ccccc2Cl)sc1C(=O)CC(=O)C(=O)Nc1c(Cl)cccc1Cl	54.1	52	> 100	68.6	65.5	88.6	> 100	> 100	> 100	64.3	> 100	> 100	86.1	38.7	> 100	60.4	> 100	71.1	71.6	56.2
Cc1ccc(N=Nc2ccc(O)c(CN(C)C)c2)cc1C	52.6	> 100	> 100	> 100	> 100	> 100	52.5	76.5	> 100	> 100	90.1	> 100	53.2	25.6	58.9	28.3	34.6	61.8	41.9	34.7
Nc1nc(N)c(C2=CCNCC2)c(=O)[nH]1	> 100	> 100	> 100	> 100	> 100	> 100	> 100	> 100	> 100	> 100	> 100	> 100	> 100	> 100	> 100	> 100	> 100	> 100	> 100	> 100
